# Source: patent US4311698A, “Aminoacid derivatives of cephalosporin compounds” (priority 1980, dated 1982)
# Tests used:
# Assay type in all cases: cell-based
# [1] = test system: Pseudomonas #28; experiment: In vitro minimal inhibitory concentration, Pseudomonas #28; settings: Pseudomonas #28; in vitro; read-out: Minimal Inhibitory Concentration
# [2] = test system: Entero Cloac. IM 11; experiment: In vitro minimal inhibitory concentration, Entero Cloac. IM 11
# [3] = test system: Strep. fec. MGH 2; experiment: In vitro minimal inhibitory concentration, Strep. fec. MGH 2
# [4] = test system: Staph S 18713; experiment: In vitro minimal inhibitory concentration, Staph S 18713
# [5] = test system: E. Coli. Vogel; experiment: In vitro minimal inhibitory concentration, E. Coli. Vogel; settings: Escherichia coli
# [6] = test system: Serr. Mar. IMM 16; experiment: In vitro minimal inhibitory concentration, Serr. Mar. IMM 16
# [7] = test system: Pseudomonas UI 18; experiment: In vitro minimal inhibitory concentration, Pseudomonas UI 18; settings: UI18
# [8] = test system: Pseudomonas BRK 12-4-4; experiment: In vitro minimal inhibitory concentration, Pseudomonas BRK 12-4-4; settings: BRK1244
# [9] = test system: Prot Vulg.; experiment: In vitro minimal inhibitory concentration, Prot Vulg.
# [10] = test system: Staph UC76; experiment: In vitro minimal inhibitory concentration, Staph UC76
# [11] = test system: Klebs. Pneum. MGH 2; experiment: In vitro minimal inhibitory concentration, Klebs. Pneum. MGH 2
# [12] = test system: E. Coli. Brig; experiment: In vitro minimal inhibitory concentration, E. Coli. Brig; settings: Escherichia coli
SMILES,MIC [1] [µg/mL],MIC [2] [µg/mL],MIC [3] [µg/mL],MIC [4] [µg/mL],MIC [5] [µg/mL],MIC [6] [µg/mL],MIC [7] [µg/mL],MIC [8] [µg/mL],MIC [9] [µg/mL],MIC [10] [µg/mL],MIC [11] [µg/mL],MIC [12] [µg/mL]
"CC(=O)N1CC(O)C[C@H]1C(=O)Nc1ccc(-c2ccc(C(=O)N[C@@H](C(=O)NC3C(=O)N4C(C(=O)O)=C(CSc5nnnn5CC(=O)O)CSC34)c3ccccc3)c(=O)[nH]2)cc1 (stereo partly drawn) [Example 30, N-[6-[4-(N-Acetyl-4-hydroxy-L-prolylamino)phenyl]-1,2-dihydro-2-oxonicotinyl]-7-[D-2-amino-2-phenylacetamido]-3-[[(1-carboxymethyl-1H-tetrazol-5-yl)thio]methyl]-3-cephem-4-carboxylic acid]",6.3,3.1,> 50,25,0.8,12.5,6.3,12.5,1.6,6.3,1.6,3.1
"CC(=O)N[C@H](CC(N)=O)C(=O)Nc1ccc(-c2ccc(C(=O)N[C@@H](C(=O)NC3C(=O)N4C(C(=O)O)=C(CSc5nnnn5C)CSC34)c3ccccc3)c(=O)[nH]2)cc1 (stereo partly drawn) [Example 23, N-[6-[4-(N-Acetyl-D-asparaginylamino)phenyl]-1,2-dihydro-2-oxonicotinyl]-7-[D-2-amino-2-phenylacetamido]-3-[[(1-methyl-1H-tetrazol-5-yl)thio]methyl]-3-cephem-4-carboxylic acid]",12.5,6.3,25,6.3,0.8,25,6.3,6.3,12.5,0.8,1.6,3.1
"CC(=O)N1CCC[C@H]1C(=O)Nc1ccc(-c2ccc(C(=O)N[C@@H](C(=O)NC3C(=O)N4C(C(=O)O)=C(CSc5nnnn5C)CSC34)c3ccccc3)c(=O)[nH]2)cc1 (stereo partly drawn) [Example 2, N-[6-[4-(N-Acetyl-L-prolylamino)phenyl]-1,2-dihydro-2-oxonicotinyl]-7-[D-2-amino-2-phenylacetamido]-3-[[(1-methyl-1H-tetrazol-5-yl)thio]methyl]-3-cephem-4-carboxylic acid]",12.5,6.3,25,3.1,1.6,12.5,12.5,25,25,0.8,1.6,6.3
"CC(=O)OCC1=C(C(=O)O)N2C(=O)C(NC(=O)[C@H](NC(=O)c3ccc(-c4ccc(NC(=O)[C@@H]5CCC(=O)N5)cc4)[nH]c3=O)c3ccccc3)C2SC1 (stereo partly drawn) [Example 6, N-[6-[4-(L-Pyroglutamylamino)phenyl]-1,2-dihydro-2-oxonicotinyl]-7-[D-2-amino-2-phenylacetamido]-3-acetoxymethyl-3-cephem-4-carboxylic acid]",12.5,12.5,25,3.1,3.1,50,6.3,12.5,25,0.8,6.3,25
"CC(=O)NC(C)C(=O)Nc1ccc(-c2ccc(C(=O)N[C@@H](C(=O)NC3C(=O)N4C(C(=O)O)=C(CSc5nnc(C)s5)CSC34)c3ccccc3)c(=O)[nH]2)cc1 (mixture of isomers) [Example 22, N-[6-[4-(N-Acetyl-DL-alanylamino)phenyl]-1,2-dihydro-2-oxonicotinyl]-7-[D-2-amino-2-phenylacetamido]-3-[([4-methyl-1,3,4-thiadiazol-2-yl]thio)methyl]-3-cephem-4-carboxylic acid]",12.5,12.5,12.5,6.3,1.6,25,12.5,12.5,12.5,0.4,3.1,6.3
"CC(=O)OCC1=C(C(=O)O)N2C(=O)C(NC(=O)[C@H](NC(=O)c3ccc(-c4ccc(NC(=O)[C@@H]5CCC(=O)N5C)cc4)[nH]c3=O)c3ccccc3)C2SC1 (stereo partly drawn) [Example 34, N-[6-[4-[N-Methyl-5-oxo-L-prolylamino]phenyl]-1,2-dihydro-2-oxo-nicotinyl]-7-[D-2-amino-2-phenylacetamido]-3-acetoxymethyl-3-cephem-4-carboxylic acid]",6.3,12.5,25,3.1,3.1,50,6.3,12.5,12.5,0.4,6.3,12.5
"CC(=O)N[C@H](C)C(=O)Nc1ccc(-c2ccc(C(=O)N[C@@H](C(=O)NC3C(=O)N4C(C(=O)O)=C(COC(C)=O)CSC34)c3ccc(O)cc3)c(=O)[nH]2)cc1 (stereo partly drawn) [Example 8, N-[6-[4-(N-Acetyl-D-alanylamino)phenyl]-1,2-dihydro-2-oxonicotinyl]-7-[D-2-amino-2-(4-hydroxyphenyl)acetamido]-3-acetoxymethyl-3-cephem-4-carboxylic acid]",1.6,12.5,12.5,6.3,3.1,50,3.1,6.3,12.5,1.6,6.3,12.5
"CC(=O)NC(C)(C)C(=O)Nc1ccc(-c2ccc(C(=O)N[C@@H](C(=O)NC3C(=O)N4C(C(=O)O)=C(COC(C)=O)CSC34)c3ccccc3)c(=O)[nH]2)cc1 (stereo partly drawn) [Example 11, N-[6-[4-(N-Acetyl-alpha-aminoisobutyrylamino)phenyl]-1,2-dihydro-2-oxonicotinyl]-7-[D-2-amino-2-phenylacetamido]-3-acetoxymethyl-3-cephem-4-carboxylicacid]",3.1,12.5,25,3.1,3.1,50,6.3,6.3,12.5,0.4,12.5,12.5
"Cn1nnnc1SCC1=C(C(=O)O)N2C(=O)C(NC(=O)[C@H](NC(=O)c3ccc(-c4ccc(NC(=O)[C@@H]5CCC(=O)N5)cc4)[nH]c3=O)c3ccccc3)C2SC1 (stereo partly drawn) [Example 7, N-[6-[4-(L-Pyroglutamylamino)phenyl]-1,2-dihydro-2-oxonicotinyl]-7-[D-2-amino-2-phenylacetamido]-3-[[(1-methyl-1H-tetrazol-5-yl)thio]methyl]-3-cephem-4-carboxylic acid]",6.3,3.1,12.5,3.1,0.8,12.5,6.3,6.3,12.5,0.4,1.6,3.1
"CC(=O)OCC1=C(C(=O)O)N2C(=O)C(NC(=O)[C@H](NC(=O)c3ccc(-c4ccc(NC(=O)[C@@H]5CC(O)CN5C(C)=O)cc4)[nH]c3=O)c3ccccc3)C2SC1 (stereo partly drawn) [Example 31, N-[6-[4-(N-Acetyl-4-hydroxy-L-prolylamino)phenyl]-1,2-dihydro-2-oxonicotinyl]-7-[D-2-amino-2-phenylacetamido]-3-acetoxymethyl-3-cephem-4-carboxylic acid]",12.5,12.5,25,25,3.1,> 50,12.5,12.5,25,0.8,6.3,12.5
"CC(=O)NC(C)C(=O)Nc1ccc(-c2ccc(C(=O)N[C@@H](C(=O)NC3C(=O)N4C(C(=O)O)=C(CSc5nnnn5C)CSC34)c3ccccc3)c(=O)[nH]2)cc1 (mixture of isomers) [Example 18, N-[6-[4-(N-Acetyl-DL-alanylamino)phenyl]-1,2-dihydro-3-oxonicotinyl]-7-[D-2-amino-2-phenylacetamido]-3-[[(1-methyl-1H-tetrazol-5-yl)thio]methyl]-3-cephem-4-carboxylic acid]",6.3,6.3,25,3.1,0.4,12.5,6.3,12.5,25,0.4,0.8,3.1
CC(=O)N[C@H](C)C(=O)Nc1ccc(-c2ccc(C(=O)N[C@@H](C(=O)NC3C(=O)N4C(C(=O)O)=C(CSc5nnnn5CCC(=O)O)CSC34)c3ccccc3)c(=O)[nH]2)cc1 (stereo partly drawn) [Example 41],6.3,6.3,50,12.5,0.8,12.5,12.5,12.5,3.1,3.1,1.6,6.3
"CC(=O)N[C@@H](C)C(=O)Nc1ccc(-c2ccc(C(=O)N[C@@H](C(=O)NC3C(=O)N4C(C(=O)O)=C(COC(C)=O)CSC34)c3ccccc3)c(=O)[nH]2)cc1 (stereo partly drawn) [Example 5, N-[6-[4-(N-Acetyl-L-alanylamino)phenyl]-1,2-dihydro-2-oxonicotinyl]-6-[D-2-amino-2-phenylacetamido]-3-acetoxymethyl-3-cephem-4-carboxylic acid]",6.3,12.5,25,1.6,1.6,50,6.3,12.5,25,0.8,12.5,12.5
